Like-named read-outs stand apart in the source and are kept apart here. Bridge positions count the residues as written; N and C are the ends. Square brackets hold non-standard residues; d marks the D form. Peptide text beside a SMILES is read from it. * marks the point of attachment. Ileψ(thiazoline)Cys = CC[C@H](C)[C@H](N)C1=N[C@H](C(=O)*)CS1; dOrn = NCCC[C@@H](N)C(=O)O
Test system: B. subtilis liaH mutant HB0920 gene expression
Experiment: microbe, parasite or virus in culture
Format: cell-based, Bacillus subtilis
Conditions: for fold induction at 100 µg/mL: Bacillus subtilis; for Fold induction 15 min / Fold induction 5 min: 100 μg/mL, listed as zinc-bacitracin
From the text: The bacitracin stimulon of B. subtilis was examined using global transcriptome analysis. […] Under most conditions tested, about 60-70 genes were induced greater than 5-fold. […] The scatter-plot represents the data sets obtained for strain HB0920 (yvqH was still detected as bacitracin-inducible due to the presence of a remaining region near the 5′-end of the gene). […] Members of the σ^M (white open squares) and σ^B (small black triangles) regulon are highlighted. All other gene signals are represented as small gray diamonds. Note that for the generation of this graphical display the data sets could not be filtered to remove low quality and non-reproducible signals, thus some of the background signals (small gray diamonds) that appear to represent highly regulated genes are not significant.
The liaH-deletion mutant was included in the analysis because the well-characterized LiaH-homologue in E. coli, PspA, functions as a repressor of transcription (Adams et al., 2003, J Bacteriol. 185: 1174-1180; Bordes et al., 2003, Proc Natl Acad Sci USA. 100: 2278-2283, the entire teachings of which are incorporated herein by reference). […] Similar results were obtained with CU1065.
For microarray analysis 100 mL of LB medium were inoculated from a fresh overnight LB-plate and incubated at 37° C. with aeration until the culture reached an O.D.600≈0.45, when the culture was split: 30 mL served as an un-induced control. To the remaining culture bacitracin was added to a final concentration of 100 μg/mL and 30 mL samples were taken 5 and 15 min after addition. The cells were harvested by centrifugation at room temperature and cell pellets were shock frozen and stored at −70° C. for at least 30 min. […] After extraction the RNA was purified using the RNA clean-up protocol of the RNeasy kit (Qiagen) with on-column DNase treatment in order to remove abundant small RNA molecules (tRNAs and 5S rRNA) and residual genomic DNA.
Each slide contains 9220 features corresponding to duplicate copies of each open reading frame, additional PCR products for some ORFs, rRNA genes, and other controls. RNA preparations were used to synthesize Cy3- and Cy5-labeled cDNA and hybridization was performed as described (Ye et al., 2000, J Bacteriol. 182: 4458-4465; Ye et al., 2001, J Microbiol Methods. 47: 257-272, the entire teaching of which are incorporated herein by reference). All comparisons were performed twice (once each with Cy3 and Cy5) to control for possible differences in labeling efficiency between fluorophores. Fluorescent signal intensity data was quantified using ArrayVision software (Molecular Dynamics) and normalized to the total detectable mRNA. Mean fluorescence intensity is set to 1.0 with a value of 0.1 corresponding to background. Each expression ratio is represented by at least four separate measurements (duplicate spots on each of two slides).

Structure (SMILES): CC[C@H](C)[C@H](N)C1=N[C@H](C(=O)N[C@@H](CC(C)C)C(=O)N[C@H](CCC(=O)O)C(=O)N[C@H](C(=O)N[C@H]2CCCCNC(=O)[C@H](CC(N)=O)NC(=O)[C@@H](CC(=O)O)NC(=O)[C@H](Cc3cnc[nH]3)NC(=O)[C@@H](Cc3ccccc3)NC(=O)[C@H]([C@@H](C)CC)NC(=O)[C@@H](CCCN)NC2=O)[C@@H](C)CC)CS1 [Bacitracin] ({Ileψ(thiazoline)Cys}-L[dE]IK[dOrn]I[dF]H[dD]N; lactam 4-C)
- fold induction at 100 µg/mL (5 min, read-out: Fold induction 5 min, gene bcrC, 100 μg/mL, 5 min): ~10
- fold induction at 100 µg/mL (5 min, read-out: Fold induction 5 min, gene cadA (yvgW), 100 μg/mL, 5 min): 58
- fold induction at 100 µg/mL (5 min, read-out: Fold induction 5 min, gene cotY, 100 μg/mL, 5 min): 9.4
- fold induction at 100 µg/mL (5 min, read-out: Fold induction 5 min, gene czcD, 100 μg/mL, 5 min): 61
- fold induction at 100 µg/mL (5 min, read-out: Fold induction 5 min, gene czcO (trkA), 100 μg/mL, 5 min): 33
- fold induction at 100 µg/mL (5 min, read-out: Fold induction 5 min, gene ydhK, 100 μg/mL, 5 min): 12
- fold induction at 100 µg/mL (5 min, read-out: Fold induction 5 min, gene yetG, 100 μg/mL, 5 min): 1.4
- fold induction at 100 µg/mL (5 min, read-out: Fold induction 5 min, gene ykvS, 100 μg/mL, 5 min): 5.9
- fold induction at 100 µg/mL (5 min, read-out: Fold induction 5 min, gene ytzB, 100 μg/mL, 5 min): 2.8
- fold induction at 100 µg/mL (5 min, read-out: Fold induction 5 min, gene yybR, 100 μg/mL, 5 min): 5.4
- fold induction at 100 µg/mL (5 min, read-out: Fold induction 5 min, gene(s) bacAB (ytsCD), 100 μg/mL, 5 min): 280
- fold induction at 100 µg/mL (5 min, read-out: Fold induction 5 min, gene(s) gerAA/AB, 100 μg/mL, 5 min): 7.1
- fold induction at 100 µg/mL (5 min, read-out: Fold induction 5 min, gene(s) ycgRQ, 100 μg/mL, 5 min): 6.7
- fold induction at 100 µg/mL (5 min, read-out: Fold induction 5 min, gene(s) ygaCD, 100 μg/mL, 5 min): 2
- fold induction at 100 µg/mL (5 min, read-out: Fold induction 5 min, gene(s) yhcYZ-yhdA, 100 μg/mL, 5 min): 20
- fold induction at 100 µg/mL (5 min, read-out: Fold induction 5 min, gene(s) yjbIH, 100 μg/mL, 5 min): 5.2
- fold induction at 100 µg/mL (5 min, read-out: Fold induction 5 min, gene(s) ykuNOP, 100 μg/mL, 5 min): 1.4
- fold induction at 100 µg/mL (5 min, read-out: Fold induction 5 min, gene(s) ytrBCDEF, 100 μg/mL, 5 min): 9.1
- fold induction at 100 µg/mL (5 min, read-out: Fold induction 5 min, gene(s) yvcRS, 100 μg/mL, 5 min): 12
- fold induction at 100 µg/mL (5 min, read-out: Fold induction 5 min, gene(s) yvqGFEC, 100 μg/mL, 5 min): 6
- fold induction at 100 µg/mL (5 min, read-out: Fold induction 5 min, gene(s) yvqIH, 100 μg/mL, 5 min): 772
- fold induction at 100 µg/mL (0.25 h, read-out: Fold induction 15 min, gene bcrC, 100 μg/mL, 15 min): ~10
- fold induction at 100 µg/mL (0.25 h, read-out: Fold induction 15 min, gene cadA (yvgW), 100 μg/mL, 15 min): 9.8
- fold induction at 100 µg/mL (0.25 h, read-out: Fold induction 15 min, gene cotY, 100 μg/mL, 15 min): 5.9
- fold induction at 100 µg/mL (0.25 h, read-out: Fold induction 15 min, gene czcD, 100 μg/mL, 15 min): 3.8
- fold induction at 100 µg/mL (0.25 h, read-out: Fold induction 15 min, gene czcO (trkA), 100 μg/mL, 15 min): 2.8
- fold induction at 100 µg/mL (0.25 h, read-out: Fold induction 15 min, gene ydhK, 100 μg/mL, 15 min): 4.4
- fold induction at 100 µg/mL (0.25 h, read-out: Fold induction 15 min, gene yetG, 100 μg/mL, 15 min): 10
- fold induction at 100 µg/mL (0.25 h, read-out: Fold induction 15 min, gene ykvS, 100 μg/mL, 15 min): 10
- fold induction at 100 µg/mL (0.25 h, read-out: Fold induction 15 min, gene ytzB, 100 μg/mL, 15 min): 11
- fold induction at 100 µg/mL (0.25 h, read-out: Fold induction 15 min, gene yybR, 100 μg/mL, 15 min): 3.7
- fold induction at 100 µg/mL (0.25 h, read-out: Fold induction 15 min, gene(s) bacAB (ytsCD), 100 μg/mL, 15 min): 360
- fold induction at 100 µg/mL (0.25 h, read-out: Fold induction 15 min, gene(s) gerAA/AB, 100 μg/mL, 15 min): 4.2
- fold induction at 100 µg/mL (0.25 h, read-out: Fold induction 15 min, gene(s) ycgRQ, 100 μg/mL, 15 min): 7.9
- fold induction at 100 µg/mL (0.25 h, read-out: Fold induction 15 min, gene(s) ygaCD, 100 μg/mL, 15 min): 12
- fold induction at 100 µg/mL (0.25 h, read-out: Fold induction 15 min, gene(s) yhcYZ-yhdA, 100 μg/mL, 15 min): 14
- fold induction at 100 µg/mL (0.25 h, read-out: Fold induction 15 min, gene(s) yjbIH, 100 μg/mL, 15 min): 7.1
- fold induction at 100 µg/mL (0.25 h, read-out: Fold induction 15 min, gene(s) ykuNOP, 100 μg/mL, 15 min): 12
- fold induction at 100 µg/mL (0.25 h, read-out: Fold induction 15 min, gene(s) ytrBCDEF, 100 μg/mL, 15 min): 9.7
- fold induction at 100 µg/mL (0.25 h, read-out: Fold induction 15 min, gene(s) yvcRS, 100 μg/mL, 15 min): 24
- fold induction at 100 µg/mL (0.25 h, read-out: Fold induction 15 min, gene(s) yvqGFEC, 100 μg/mL, 15 min): 7
- fold induction at 100 µg/mL (0.25 h, read-out: Fold induction 15 min, gene(s) yvqIH, 100 μg/mL, 15 min): 1060
- Fold induction 15 min (gene bcrC): 9.5 fold
- Fold induction 5 min (gene(s) bacAB (ytsCD), 5 min): 282 fold
- Fold induction 15 min (gene(s) bacAB (ytsCD)): 365 fold
- Fold induction 5 min (gene(s) yhcYZ-yhdA, 5 min): 21 fold
- Fold induction 15 min (gene(s) yvcRS): 25 fold
- Fold induction 5 min (gene(s) yvqGFEC, 5 min): 6.1 fold

— patent publication US7309484B2, “Compositions and methods for screening antibacterial compounds” (priority 2003, dated 2007)
